Reference: patent US20260015350A1, “AZAQUINAZOLINE PAN-KRAS INHIBITORS” (Mirati Therapeutics, Inc., priority 2022, published 2026)

Key:
[1] = tested on: KRas-mediated phosphorylation of ERK in A549 cells; experiment: Inhibition of KRas-mediated phosphorylation of ERK (Cisbio HTRF pERK), A549 cells; format: cell-based; details: Homo sapiens, HTRF pERK
Summary of the method: (§1)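 HTRF readout of phospho-ERK in cell lysates after 3 hrs of compound exposure. Dosing: 10 uM top, 3-fold steps, 10 doses, final DMSO 0.8%. Min control: 0.2 uM Trametinib. Lysis ran 40 mins at 4° C, and antibody detection 2 hrs at room temperature.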

[2] = tested on: KRas-mediated phosphorylation of ERK in H727 cells; experiment: Inhibition of KRas-mediated phosphorylation of ERK (Cisbio HTRF pERK), H727 cells; format: cell-based; details: Homo sapiens, NCI-H727, H727 cells; HTRF pERK
Summary of the method: (§2)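 6,000 cells/well; cpd 10 uM top, 3-fold x10, 0.8% DMSO final; 3 hr incubation; Min ctrl Trametinib 0.2 uM; lysis 40 min 4° C shaking; d2 + Cryptate Ab mix, 2 hr RT; HTRF read.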

KRas^G12D = target: T1, KRas^G12D (Homo sapiens, UniProt P01116, G12D); experiment: KRas binding assay (TR-FRET tracer displacement), KRas G12D
T1 construct: Biotinylated KRas (corresponding to amino acids 1-169, produced at Accelegan Inc.); biotin (biotinylated); purchased Accelegan Inc
T1 sequence (P01116 1-169 isoform P01116-2 G12D): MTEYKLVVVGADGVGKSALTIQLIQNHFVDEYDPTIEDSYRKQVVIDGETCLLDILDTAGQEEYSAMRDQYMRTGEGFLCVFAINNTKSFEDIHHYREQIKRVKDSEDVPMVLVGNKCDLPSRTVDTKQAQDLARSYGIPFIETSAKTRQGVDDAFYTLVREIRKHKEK

KRas^G12R = target: T2, KRas^G12R (Homo sapiens, UniProt P01116, G12R); experiment: KRas binding assay (TR-FRET tracer displacement), KRas G12R
T2 construct: Biotinylated KRas (corresponding to amino acids 1-169, produced at Accelegan Inc.); biotin (biotinylated); purchased Accelegan Inc
T2 sequence (P01116 1-169 isoform P01116-2 G12R): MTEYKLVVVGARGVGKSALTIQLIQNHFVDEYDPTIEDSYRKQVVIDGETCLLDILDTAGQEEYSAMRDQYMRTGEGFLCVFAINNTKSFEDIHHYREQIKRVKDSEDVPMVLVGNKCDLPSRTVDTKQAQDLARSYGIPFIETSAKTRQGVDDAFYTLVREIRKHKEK

KRas^G12V = target: T3, KRas^G12V (Homo sapiens, UniProt P01116, G12V); experiment: KRas binding assay (TR-FRET tracer displacement), KRas G12V
T3 construct: Biotinylated KRas (corresponding to amino acids 1-169, produced at Accelegan Inc.); biotin (biotinylated); purchased Accelegan Inc
T3 sequence (P01116 1-169 isoform P01116-2 G12V): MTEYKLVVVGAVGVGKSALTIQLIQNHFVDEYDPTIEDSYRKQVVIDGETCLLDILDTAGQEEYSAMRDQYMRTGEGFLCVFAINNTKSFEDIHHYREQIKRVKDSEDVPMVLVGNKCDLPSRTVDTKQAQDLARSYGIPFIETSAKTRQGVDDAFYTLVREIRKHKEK

[3] = tested on: KRas-mediated phosphorylation of ERK in H460 cells; experiment: Inhibition of KRas-mediated phosphorylation of ERK (Cisbio HTRF pERK), H460 cells; format: cell-based; details: Homo sapiens, NCI-H460, HTRF pERK
Summary of the method: as §2

[4] = tested on: KRas-mediated phosphorylation of ERK in H358 cells; experiment: Inhibition of KRas-mediated phosphorylation of ERK (Cisbio HTRF pERK), H358 cells; format: cell-based; details: Homo sapiens, NCI-H358, HTRF pERK
Summary of the method: as §2

[5] = tested on: KRas-mediated phosphorylation of ERK in AsPC-1 cells; experiment: Inhibition of KRas-mediated phosphorylation of ERK (Cisbio HTRF pERK), AsPC-1 cells; format: cell-based; details: Homo sapiens, ASPC1, AsPC-1 cells; HTRF pERK
Summary of the method: as §2

[6] = tested on: KRas-mediated phosphorylation of ERK in HCT116 cells; experiment: Inhibition of KRas-mediated phosphorylation of ERK (Cisbio HTRF pERK), HCT116 cells; format: cell-based; details: Homo sapiens, HCT-116, HTRF pERK
Summary of the method: as §1

[7] = tested on: KRas-mediated phosphorylation of ERK in PSN1 cells; experiment: Inhibition of KRas-mediated phosphorylation of ERK (Cisbio HTRF pERK), PSN1 cells; format: cell-based; details: Homo sapiens
Summary of the method: (§3)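 Overnight culture at 37° C./5% CO2 in RPMI containing 10% FBS, seeded 6,000 cells per well, preceded the assay. A covered 4-hour incubation at room temperature followed, then HTRF signal for phosphorylated ERK was measured.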

[8] = tested on: KRas-mediated phosphorylation of ERK in MKN1 cells; experiment: Inhibition of KRas-mediated phosphorylation of ERK (Cisbio HTRF pERK), MKN1 cells; format: cell-based; details: Homo sapiens, MKN-1
Summary of the method: as §3

SMILES	IC50 [1] [nM]	IC50 [2] [nM]	IC50 (KRas^G12D) [nM]	IC50 (KRas^G12R) [nM]	IC50 (KRas^G12V) [nM]	IC50 [3] [nM]	IC50 [4] [nM]	IC50 [5] [nM]	IC50 [6] [nM]	IC50 [7] [nM]	IC50 [8] [nM]
CCc1c(F)ccc2cc(O)cc(-c3ncc4c(N5CCOC[C@@]6(CCO6)C5)nc(OC[C@@]56CCCN5C[C@H](F)C6)nc4c3F)c12 [Example 836, 5-ethyl-6-fluoro-4-(8-fluoro-2-(((2R,7aS)-2-fluorotetrahydro-1H-pyrrolizin-7a(5H)-yl)methoxy)-4-((R)-1,6-dioxa-9-azaspiro[3.6]decan-9-yl)pyrido[4,3-d]pyrimidin-7-yl)naphthalen-2-ol]	69	231	24	4	6	32	22	386	119	9790	19
CCc1c(F)ccc2cc(O)cc(-c3ncc4c(N5CCOC[C@]6(CCO6)C5)nc(OC[C@@]56CCCN5C[C@H](F)C6)nc4c3F)c12 [Example 837, 5-ethyl-6-fluoro-4-(8-fluoro-2-(((2R,7aS)-2-fluorotetrahydro-1H-pyrrolizin-7a(5H)-yl)methoxy)-4-((S)-1,6-dioxa-9-azaspiro[3.6]decan-9-yl)pyrido[4,3-d]pyrimidin-7-yl)naphthalen-2-ol]	11	23	< 2	< 2	< 2	14	6	4	45	2990	3
CCc1c(F)ccc2cc(O)cc(-c3ncc4c(N5CC6CCC(COCCO)(C6)C5)nc(OC[C@@]56CCCN5C[C@H](F)C6)nc4c3F)c12 (stereo partly drawn) [Example 840, 5-ethyl-6-fluoro-4-(8-fluoro-2-(((2R,7aS)-2-fluorotetrahydro-1H-pyrrolizin-7a(5H)-yl)methoxy)-4-(1-((2-hydroxyethoxy)methyl)-3-azabicyclo[3.2.1]octan-3-yl)pyrido[4,3-d]pyrimidin-7-yl)naphthalen-2-ol]	422	299	9	7	4	145	180	575	239	> 10000	38
CCc1c(F)ccc2cc(O)cc(-c3ncc4c(N5C[C@H]6CC[C@@H](C5)[C@@H]6O)nc(OC[C@@]56CCCN5C[C@H](F)C6)nc4c3F)c12 [Example 842, (1R,5S,8R)-3-(7-(8-ethyl-7-fluoro-3-hydroxynaphthalen-1-yl)-8-fluoro-2-(((2R,7aS)-2-fluorotetrahydro-1H-pyrrolizin-7a(5H)-yl)methoxy)pyrido[4,3-d]pyrimidin-4-yl)-3-azabicyclo[3.2.1]octan-8-ol]	56	97	5	< 2	< 2	20	9	479	41	> 10000	1
CCc1c(F)ccc2cc(O)cc(-c3ncc4c(N5CC6CCC(C5)C6(O)C(F)(F)F)nc(OC[C@@]56CCCN5C[C@H](F)C6)nc4c3F)c12 (stereo partly drawn) [Example 843, (1R,5S,8R)-3-(7-(8-ethyl-7-fluoro-3-hydroxynaphthalen-1-yl)-8-fluoro-2-(((2R,7aS)-2-fluorotetrahydro-1H-pyrrolizin-7a(5H)-yl)methoxy)pyrido[4,3-d]pyrimidin-4-yl)-8-(trifluoromethyl)-3-azabicyclo[3.2.1]octan-8-ol]	2510	5300	265	26	79	162	478	6230	305	> 10000	55
CCc1c(F)ccc2cc(O)cc(-c3ncc4c(N5CC6CCC(C5)C6CO)nc(OC[C@@]56CCCN5C[C@H](F)C6)nc4c3F)c12 (stereo partly drawn) [Example 845, 5-ethyl-6-fluoro-4-(8-fluoro-2-(((2R,7aS)-2-fluorotetrahydro-1H-pyrrolizin-7a(5H)-yl)methoxy)-4-((1R,5S,8S)-8-(hydroxymethyl)-3-azabicyclo[3.2.1]octan-3-yl)pyrido[4,3-d]pyrimidin-7-yl)naphthalen-2-ol]	1190	1150	41	11	10	80	241	1570	159	3460	64
CCc1c(F)ccc2cc(O)cc(-c3ncc4c(N5CC6CCC(C5)C6(C)O)nc(OC[C@@]56CCCN5C[C@H](F)C6)nc4c3F)c12 (stereo partly drawn) [Example 846, (1R,5S,8R)-3-(7-(8-ethyl-7-fluoro-3-hydroxynaphthalen-1-yl)-8-fluoro-2-(((2R,7aS)-2-fluorotetrahydro-1H-pyrrolizin-7a(5H)-yl)methoxy)pyrido[4,3-d]pyrimidin-4-yl)-8-methyl-3-azabicyclo[3.2.1]octan-8-ol]	2680	2850	159	38	28	238	746	4470	572	> 10000	102
CCc1c(F)ccc2cc(O)cc(-c3ncc4c(N5CC6CCC(C5)C6CCO)nc(OC[C@@]56CCCN5C[C@H](F)C6)nc4c3F)c12 (stereo partly drawn) [Example 847, 5-ethyl-6-fluoro-4-(8-fluoro-2-(((2R,7aS)-2-fluorotetrahydro-1H-pyrrolizin-7a(5H)-yl)methoxy)-4-((1R,5S,8S)-8-(2-hydroxyethyl)-3-azabicyclo[3.2.1]octan-3-yl)pyrido[4,3-d]pyrimidin-7-yl)naphthalen-2-ol]	1820	1640	140	39	20	582	494	4520	1430	> 10000	270
CCc1c(F)ccc2cc(O)cc(-c3ncc4c(N5C[C@H]6CC[C@@H](C5)[C@H]6O)nc(OC[C@@]56CCCN5C[C@H](F)C6)nc4c3F)c12 [Example 848, (1R,5S,8S)-3-(7-(8-ethyl-7-fluoro-3-hydroxynaphthalen-1-yl)-8-fluoro-2-(((2R,7aS)-2-fluorotetrahydro-1H-pyrrolizin-7a(5H)-yl)methoxy)pyrido[4,3-d]pyrimidin-4-yl)-3-azabicyclo[3.2.1]octan-8-ol]	809	896	39	12	9	275	310	2060	496	> 10000	100
C=C1[C@@H]2CC[C@H]1CN(c1nc(OC[C@@]34CCCN3C[C@H](F)C4)nc3c(F)c(-c4cc(O)cc5ccc(F)c(CC)c45)ncc13)C2 [Example 849, 5-ethyl-6-fluoro-4-(8-fluoro-2-(((2R,7aS)-2-fluorotetrahydro-1H-pyrrolizin-7a(5H)-yl)methoxy)-4-((1R,5S)-8-methylene-3-azabicyclo[3.2.1]octan-3-yl)pyrido[4,3-d]pyrimidin-7-yl)naphthalen-2-ol]	1270	1000	65	24	9	802	286	3090	1780	> 10000	189
CCc1c(F)ccc2cc(O)cc(-c3ncc4c(N5CC6CCC(C5)C6C(=O)NC)nc(OC[C@@]56CCCN5C[C@H](F)C6)nc4c3F)c12 (stereo partly drawn) [Example 850, (1R,5S,8S)-3-(7-(8-ethyl-7-fluoro-3-hydroxynaphthalen-1-yl)-8-fluoro-2-(((2R,7aS)-2-fluorotetrahydro-1H-pyrrolizin-7a(5H)-yl)methoxy)pyrido[4,3-d]pyrimidin-4-yl)-N-methyl-3-azabicyclo[3.2.1]octane-8-carboxamide]	862	2280	6	10	8	83	150	1450	171	> 10000	4
